Assay results as given in patent US7067517B2 (priority 2001, dated 2006).
Where two headings read alike, the source gives them in different places.

Assays:
[1] = target: T1, Hormone-sensitive lipase (HSL) (Homo sapiens, UniProt Q05469); assay: biochemical; assay type: biochemical; conditions: for activity at 10 µM: read-out: Test 3180.2 HSL % ACTIVITY All
T1 sequence (Q05469 1-1076): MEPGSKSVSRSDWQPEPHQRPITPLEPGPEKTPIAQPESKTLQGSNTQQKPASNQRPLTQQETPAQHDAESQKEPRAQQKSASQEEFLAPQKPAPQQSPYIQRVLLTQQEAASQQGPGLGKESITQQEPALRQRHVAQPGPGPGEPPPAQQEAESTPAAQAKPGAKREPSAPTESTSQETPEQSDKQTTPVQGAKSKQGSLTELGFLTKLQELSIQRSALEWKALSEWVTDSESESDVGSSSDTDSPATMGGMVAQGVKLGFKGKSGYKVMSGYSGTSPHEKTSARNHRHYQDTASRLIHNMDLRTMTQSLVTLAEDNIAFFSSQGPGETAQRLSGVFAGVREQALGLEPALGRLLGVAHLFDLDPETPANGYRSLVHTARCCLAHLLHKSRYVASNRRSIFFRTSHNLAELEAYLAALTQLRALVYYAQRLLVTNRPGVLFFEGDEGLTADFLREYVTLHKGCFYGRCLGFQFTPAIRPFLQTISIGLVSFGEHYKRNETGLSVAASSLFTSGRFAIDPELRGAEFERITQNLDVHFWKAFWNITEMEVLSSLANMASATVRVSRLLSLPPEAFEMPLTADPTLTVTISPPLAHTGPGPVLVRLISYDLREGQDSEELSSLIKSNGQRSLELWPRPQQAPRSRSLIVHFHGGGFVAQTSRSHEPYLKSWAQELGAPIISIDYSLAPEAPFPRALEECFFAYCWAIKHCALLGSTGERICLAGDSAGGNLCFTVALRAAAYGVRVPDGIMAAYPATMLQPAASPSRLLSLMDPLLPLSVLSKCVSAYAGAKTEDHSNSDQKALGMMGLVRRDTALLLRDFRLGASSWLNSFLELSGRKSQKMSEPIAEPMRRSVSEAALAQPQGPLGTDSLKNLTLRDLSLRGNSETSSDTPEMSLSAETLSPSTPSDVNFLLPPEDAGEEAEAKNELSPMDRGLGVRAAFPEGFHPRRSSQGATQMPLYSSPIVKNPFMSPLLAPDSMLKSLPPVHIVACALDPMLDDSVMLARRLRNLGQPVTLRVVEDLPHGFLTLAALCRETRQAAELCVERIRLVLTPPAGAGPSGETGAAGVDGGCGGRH
From the text: (§1) Materials. The Hormone-sensitive lipase was provided by Dr. Cecilia Holm, from Lund University Sweden or produced and purified by Novo Nordisk (NN) using the reagents and protocols used by Dr. Holm. The substrates used are: ^3H-labeled triolein (TO) from Amersham, Buckinghamshire, U.K. cat No. TRA191; 5–20 Ci/mmol dissolved in toluene, triolein (Sigma, Cat. No. T-1740), fluorochrome-labeled triacylglyceride (cis-octadec-9-enoic acid 2-[12-(7-nitrobenzo[1,2,5]oxadiazol-4-ylamino)dodecanoyloxy]-1-cis-octadec-9-enoyloxymethyl-ethyl ester) prepared by Novo Nordisk (NN) by conventional methods, and 1,3-(di[^3H]-stearin), 2-(PEG-Boitin)glycerol prepared in collaboration with Amersham Pharmacia Biotech, UK and described in WO 01/073442. Phosphatidyl choline (PC) and phosphatidyl inositol (PI) are from Sigma (St Luis Mo. cat. Nos. P-3556 and P-5954 respectively). All other reagents are of commercial grade and obtained from various commercial sources.
3180.2: Assay for determination of percent inhibition by compound at 10 μM concentration.
A lipid emulsion with ^3H-Triolein and phospholipid is used as substrate with a standard cencentration of highly purified HSL. BSA is added as product receptor. The substrate is prepared as follows:
30 μl PC:PI (20 mg/ml solution of PC:PI 3:1 prepared in chloroform)+128 μl cold TO+15 μl ^3H-TO are mixed and then evaporated under a gentle stream of N2 followed by 20–30 minutes in a Speedvac to ensure the absence of residual solvent.
Compound and HSL are incubated for 30 min at 25° C. before addition of substrate. Reaction is stopped after 30 min at 25° C. by adding a mixture of methanol, chloroform and heptane at high pH. Formed product is separated from substrate by phase separation.
Results are given as percent activity relative to an un-inhibited sample (no compound).

[2] = target: T1, Hormone-sensitive lipase (HSL); assay type: biochemical
From the text: as §1
2898.2: This method is an enzyme assay based upon SPA (scintillation proximity assay) particles. The substrate, 1,3-(di-[^3H]-stearin), 2-(PEG-Biotin)-glycerol, is marked with ^3H in both fatty acid moieties in the tri-glyceride. The third moiety of the tri-glyceride is a PEG linked Biotin. The substrate binds through Biotin to streptavidin in the SPA particles and the proximity between the radioactive tritium in the stearic acid moiety and the SPA particle results in emission of light from the SPA particles. The assay is an on-bead assay where HSL degrades the substrate, where after ^3H-stearin acid is released from the bead. The amount of light emitted is proportional to the amount of substrate bound to the receptor. When a compound that inhibits the activity of HSL is present it results in a decrease in degradation of the substrate and thus an increase in the amount of light emitted and a concomitant increase in % Eff. % Eff(% Inhibition)=(S−S0Eff)/(SmaxEff−S0Eff)×100 Where S=signal in dpm., SOEff=no inhibitor added, SmaxEff=with maximum concentration of inhibitor. Results

[3] = SPA on-bead assay, % Eff (% Inhibition)
[4] = 10 μM concentration, percent activity relative to an un-inhibited sample (no compound)

Row | Compound | Test 2898.2 HSL2 % Inhibition All [2, 3] [%] | activity at 10 µM [1, 4] [%] | also measured
1 | 1-Biphenyl-4-yl-3-methylamino-propenone-cyclohexyl-carbamic acid [Example 115] | – | – | Test 3180.2 HSL % ACTIVITY All ([1]; 10 µM): 85%; Test 2898.2 HSL2 % Inhibition All [2]: 73.6%
2 | CN(C)C(=O)On1nnc2ccccc21 [Example 103, Dimethylcarbamic acid benzotriazol-1-yl ester] | 101.4 | – | activity at 10 µM [1]: 2%
3 | CC(C)C(Cl)=NOC(=O)NCc1ccc(F)cc1 [Example 112, N-(4-Fluorobenzylcarbamoyloxy)-isobutyrimidoyl chloride] | 86 | – | –
4 | CC(C)C(Cl)=NOC(=O)NCC(O)c1ccccc1 (stereo not drawn) [Example 113, N-(2-Hydroxy-2-phenylethylcarbamoyloxy)-isobutyrimidoyl chloride] | 18.3 | – | –
5 | O=C(Nc1cccn1-c1ncc(C(F)(F)F)cc1Cl)Oc1ccc(Cl)cc1 [Example 117, [1-(3-Chloro-5-trifluoromethyl-pyridin-2-yl)-1H-pyrrol-2-yl]-carbamic acid 4-chloro-phenyl ester] | – | 2 | –
6 | CCCCCCSc1nc(-c2ccc(C)cc2)nn1C(=O)N(C)c1ccccc1 [Example 118, N-Methyl-N-phenyl-5-hexylsulfanyl-3-p-tolyl-[1,2,4]triazole-1-carboxamide] | – | 24 | –
7 | CSc1nc(-c2ccc(Cl)cc2)nn1C(=O)N1CCOCC1 [Example 120, [3-(4-Chlorophenyl)-5-methylsulfanyl-[1,2,4]triazol-1-yl]-morpholin-4-yl-methanone] | – | 40 | –
8 | CSc1nc(-c2ccc3ccccc3c2)nn1C(=O)N(C)C [Example 121, N,N-Dimethyl-5-methylsulfanyl-3-naphthalen-2-yl-[1,2,4]triazole-1-carboxamide] | – | 24 | –
9 | CCSc1nc(-c2ccc(Cl)cc2)nn1C(=O)N(C)C [Example 122, N,N-Dimethyl-3-(4-chloro-phenyl)-5-ethylsulfanyl-[1,2,4]triazole-1-carboxamide] | – | 14 | –
10 | CSc1nc(-c2ccc(-c3ccccc3)cc2)nn1C(=O)N(C)C [Example 123, N,N-Dimethyl-3-biphenyl-4-yl-5-methylsulfanyl-[1,2,4]triazole-1-carboxamide] | – | 22 | –
11 | CSc1nc(-c2ccc(Cl)cc2)nn1C(=O)N(C)C [Example 124, N,N-Dimethyl-3-(4-chloro-phenyl)-5-methylsulfanyl-[1,2,4]triazole-1-carboxamide] | 75.1 | – | –
12 | Cc1ccc(CSc2nnc(OC(=O)N(C)C)n2-c2cccc(Cl)c2)cc1 [Example 133, Dimethyl carbamic acid 4-(3-chloro-phenyl)-5-(4-methyl-benzylsulfanyl)-4H-[1,2,4]triazol-3-yl ester] | 15.8 | – | –
13 | N-Methyl-N-phenethyl-5-ethyl-3-(4-chlorophenyl)-[1,2,4]triazole-1-carboxamide [Example 119] | – | – | Test 3180.2 HSL % ACTIVITY All [1, 4]: 10%
